After the bases stand the sugars from the 5' end (letter, count) and the backbone: PS all phosphorothioate, else s phosphorothioate and o phosphodiester by linkage. Methylation of C is not given here. e = 2'-O-(2-methoxyethyl) (MOE); k = constrained ethyl (cEt); d = 2'-deoxy (DNA); m = 2'-O-methyl
Molecular target: HSD17B13
Conditions: ASO, HepaRG

| Sequence | target mRNA inhibition (1 µM) [%] | other results |
| --- | --- | --- |
| CAGTTATTAGAAGTCA (sugars k3 d10 k3, PS) | 85 | target mRNA inhibition (0.02 µM): 0%; target mRNA inhibition (0.078 µM): 0%; target mRNA inhibition (0.313 µM): 0%; target mRNA inhibition (1.25 µM): 56%; target mRNA inhibition (5 µM): 88% |
| CAGTTTAGATTGCATA (sugars k3 d10 k3, PS) | 60 |  |
| CAGTTTTCCTCATGAT (sugars kkdddddddddkekek, PS) | 59 |  |
| CATAAAAATCGCTGCT (sugars k3 d10 k3, PS) | 45 |  |
| CATAAAGGTGGGATAA (sugars k3 d10 k3, PS) | 23 |  |
| CATAACCTAATAACTA (sugars k3 d10 k3, PS) | 10 |  |
| CATAACTTCATAGTGG (sugars k3 d9 k3 e1, PS) | 16 |  |
| CATAAGGCCGATTCAT (sugars k3 d10 k3, PS) | 32 |  |
| CATAAGTAGTCTGCCT (sugars k3 d10 k3, PS) | 31 |  |
| CATAAGTTACCAGAGC (sugars k3 d10 k3, PS) | 80 | target mRNA inhibition (0.02 µM): 26%; target mRNA inhibition (0.078 µM): 41%; target mRNA inhibition (0.313 µM): 63%; target mRNA inhibition (1.25 µM): 86%; target mRNA inhibition (5 µM): 94% |
| CATAATAATAGCTCTA (sugars k3 d1 m1 d8 k3, PS) | 33 |  |
| CATACCACTCTTCTCA (sugars k3 d10 k3, PS) | 24 |  |
| CATAGGACATGGAGAC (sugars k3 d10 k3, PS) | 69 | target mRNA inhibition (0.02 µM): 0%; target mRNA inhibition (0.078 µM): 16%; target mRNA inhibition (0.313 µM): 37%; target mRNA inhibition (1.25 µM): 58%; target mRNA inhibition (5 µM): 83% |
| CATAGTGGACTTCATT (sugars k3 d10 k3, PS) | 34 |  |
| CATATACAGACTAAGG (sugars k3 d10 k3, PS) | 57 |  |
| CATATCCAGTAGGTGT (sugars k3 d10 k3, PS) | 37 |  |
| CATATGGTGTACACTG (sugars k3 d10 k3, PS) | 15 |  |
| CATATGTGAAGAGCTG (sugars k3 d9 k3 e1, PS) | 50 |  |
| CATATGTGAAGAGCTG (sugars k3 d10 k3, PS) | 25 |  |
| CATAUGTGAAGAGCTG (sugars k3 d1 m1 d8 k3, PS) | 39 |  |
| CATCAAGACATTCTAG (sugars k3 d10 k3, PS) | 49 |  |
| CATCCTTGGTGCTGAG (sugars k3 d10 k3, PS) | 12 |  |
| CATCGATGGAAGAAGT (sugars k3 d10 k3, PS) | 16 |  |
| CATCTAACTAACCTGA (sugars k3 d10 k3, PS) | 0 |  |
| CATCTAGAATTAAGGG (sugars k3 d10 k3, PS) | 53 |  |

| Sequence | target mRNA inhibition (1 µM) [%] | other results |
| --- | --- | --- |
| CATCTATCATGCCTTC (sugars k3 d10 k3, PS) | 18 |  |
| CATCTCTGGGACCAAG (sugars k3 d10 k3, PS) | 51 |  |
| CATCUCTGGGACCAAG (sugars k3 d1 m1 d8 k3, PS) | 42 |  |
| CATTCGAATTTCTTCA (sugars k3 d10 k3, PS) | 77 | target mRNA inhibition (0.02 µM): 29%; target mRNA inhibition (0.078 µM): 53%; target mRNA inhibition (0.313 µM): 74%; target mRNA inhibition (1.25 µM): 91%; target mRNA inhibition (5 µM): 97% |
| CATTCTAAACTACTAT (sugars k3 d10 k3, PS) | 11 |  |
| CATTCTGTGTTCTTGT (sugars k3 d10 k3, PS) | 60 |  |
| CATTGATTCGAAACTA (sugars k3 d10 k3, PS) | 40 |  |
| CATTTAGAATACGCTG (sugars k3 d10 k3, PS) | 25 |  |
| CCAAATCAGGTAGTTT (sugars k3 d10 k3, PS) | 13 |  |
| CCAACCAAACTTCCAG (sugars k3 d1 m1 d8 k3, PS) | 30 |  |
| CCAACGACTCCAAGTA (sugars k3 d10 k3, PS) | 20 |  |
| CCAAGTAGGAGTAGAT (sugars k3 d10 k3, PS) | 19 |  |
| CCAATACAGGCCATAA (sugars k3 d10 k3, PS) | 38 |  |
| CCACATAGCTAACTCA (sugars k3 d10 k3, PS) | 53 |  |
| CCACTTTTGGTGGACT (sugars k3 d10 k3, PS) | 17 |  |
| CCAGAAGTATGTGAAC (sugars k3 d10 k3, PS) | 8 |  |
| CCAGTACAGTTCCTTT (sugars k3 d9 k3 e1, PS) | 76 | target mRNA inhibition (0.02 µM): 10%; target mRNA inhibition (0.078 µM): 20%; target mRNA inhibition (0.313 µM): 43%; target mRNA inhibition (1.25 µM): 73%; target mRNA inhibition (5 µM): 83% |
| CCATAACCATAGGACA (sugars k3 d10 k3, PS) | 63 | target mRNA inhibition (0.02 µM): 35%; target mRNA inhibition (0.078 µM): 13%; target mRNA inhibition (0.313 µM): 54%; target mRNA inhibition (1.25 µM): 78%; target mRNA inhibition (5 µM): 91% |
| CCATAATAATAGCTCT (sugars k3 d10 k3, PS) | 48 |  |
| CCATCCCCTAAGTTAT (sugars k3 d10 k3, PS) | 14 |  |
| CCATCTAGAATTAAGG (sugars k3 d10 k3, PS) | 0 |  |
| CCATCTATCAGACTTC (sugars k3 d10 k3, PS) | 78 | target mRNA inhibition (0.02 µM): 0%; target mRNA inhibition (0.078 µM): 0%; target mRNA inhibition (0.313 µM): 20%; target mRNA inhibition (1.25 µM): 63%; target mRNA inhibition (5 µM): 78% |
| CCATGCAAAAGCATTC (sugars k3 d10 k3, PS) | 72 |  |
| CCCAACCCAAGCTACC (sugars k3 d10 k3, PS) | 22 |  |
| CCCACAGAACCAATAT (sugars k3 d10 k3, PS) | 16 |  |

| Sequence | target mRNA inhibition (1 µM) [%] | other results |
| --- | --- | --- |
| CCCAGCATTATTCACC (sugars k3 d10 k3, PS) | 19 |  |
| CCCCGAATTATTTCTT (sugars k3 d10 k3, PS) | 35 |  |
| CCCGCCCTTAAGTCAT (sugars k3 d10 k3, PS) | 45 |  |
| CCCTAAGTTATTATCC (sugars k3 d10 k3, PS) | 25 |  |
| CCCTGTGTAAATAAGT (sugars k3 d10 k3, PS) | 41 |  |
| CCCTTAACAAACCTCC (sugars k3 d10 k3, PS) | 43 |  |
| CCCTTAGGAAAGCTCA (sugars k3 d10 k3, PS) | 37 |  |
| CCGCACACTGAAGCCA (sugars k3 d10 k3, PS) | 34 |  |
| CCTAAGATAAAATTGC (sugars k3 d10 k3, PS) | 18 |  |
| CCTATGAAAAACTACG (sugars k3 d10 k3, PS) | 36 |  |
| CCTCCTTATTTGTTAG (sugars k3 d10 k3, PS) | 41 |  |
| CCTCGATCCTATATAC (sugars kkdddddddddkekek, PS) | 3 |  |
| CCTCUAAGTTAGCCCC (sugars k3 d1 m1 d8 k3, PS) | 8 |  |
| CCTGCCTATTCCATGC (sugars k3 d10 k3, PS) | 24 |  |
| CCTGTGTAAATAAGTT (sugars k3 d10 k3, PS) | 18 |  |
| CCTTACCAGAATTTAC (sugars k3 d10 k3, PS) | 63 |  |
| CCTTACCTTGTGCTTG (sugars k3 d10 k3, PS) | 20 |  |
| CCTTAGGAAAGCTCAT (sugars k3 d10 k3, PS) | 29 |  |
| CCTTATACTGAAGGCT (sugars k3 d10 k3, PS) | 41 |  |
| CCTTATGATAATTTGG (sugars k3 d10 k3, PS) | 29 |  |
| CCTTGAATAGCAAGCC (sugars k3 d10 k3, PS) | 61 |  |
| CGAAACTATTCATATC (sugars k3 d10 k3, PS) | 66 |  |
| CGAATTTCTTCAAAGA (sugars k3 d10 k3, PS) | 55 |  |
| CGACTCCAAGTAGGAG (sugars k3 d10 k3, PS) | 10 |  |
| CGATCCTATATACATC (sugars kkdddddddddkekek, PS) | 29 |  |

| Sequence | target mRNA inhibition (1 µM) [%] | other results |
| --- | --- | --- |
| CGATGGAAGAAGTGCT (sugars k3 d10 k3, PS) | 3 |  |
| CGCATGCGCAGTGACG (sugars k3 d10 k3, PS) | 46 |  |
| CGGCACTCAGCTGCAG (sugars k3 d10 k3, PS) | 55 |  |
| CGGCTGGATATACTGT (sugars k3 d10 k3, PS) | 35 |  |
| CGGTCACCTTTCATAA (sugars k3 d1 m1 d8 k3, PS) | 42 |  |
| CGGTCACCTTTCATAA (sugars k3 d9 k3 e1, PS) | 67 |  |
| CGTGGCCGCACACTGA (sugars k3 d10 k3, PS) | 42 |  |
| CGTTTAAATCAGAGCA (sugars k3 d10 k3, PS) | 54 |  |
| CGTTTTGGGCTAATGA (sugars k3 d9 k3 e1, PS) | 52 |  |
| CTAAAACTGAAGGTCT (sugars k3 d10 k3, PS) | 40 |  |
| CTAAAATTGTCTAAAC (sugars k3 d9 k3 e1, PS) | 7 |  |
| CTAAACATCTCTGGGA (sugars kkdddddddddkekek, PS) | 29 |  |
| CTAAAGGTTTCTGTTG (sugars k3 d10 k3, PS) | 34 |  |
| CTAAATTTCAGTACCC (sugars k3 d10 k3, PS) | 33 |  |
| CTACACTAATATTGAG (sugars k3 d1 m1 d8 k3, PS) | 29 |  |
| CTAGAACACTTGCCTC (sugars k3 d10 k3, PS) | 25 |  |
| CTAGGAGATATAACAT (sugars k3 d10 k3, PS) | 40 |  |
| CTAGGATGATGTTCAT (sugars k3 d10 k3, PS) | 47 |  |
| CTAGGATGTTGACCTC (sugars k3 d10 k3, PS) | 0 |  |
| CTAGGGAAATCTTTCA (sugars kkdddddddddkekek, PS) | 46 |  |
| CTAGGGAGGAGGTACT (sugars k3 d10 k3, PS) | 29 |  |
| CTAGTTACAAACCACC (sugars k3 d10 k3, PS) | 43 |  |
| CTAGTTTTCGGCACTC (sugars k3 d10 k3, PS) | 33 |  |

Source: the OligoGym collection
